Assay results: ChEMBL document CHEMBL1201862, “PubChem BioAssay data set” (2004)
Calls of active or inactive are those of the source.

Experiments:
[1] = target: Voltage-dependent T-type calcium channel subunit alpha-1H (Homo sapiens, UniProt O95180); format: functional;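 further: channel activity triggered by adding a high calcium stimulation buffer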
[2] = target: T1, Microphthalmia-associated transcription factor (Homo sapiens, UniProt O75030); assay: TRPM1 promoter luciferase signal decrease, dose response, MITF inhibitor project, cell-based, SK-MEL-5, cherry-picked, set 3 (AID 493073); format: functional
T1 sequence (O75030 whole entry): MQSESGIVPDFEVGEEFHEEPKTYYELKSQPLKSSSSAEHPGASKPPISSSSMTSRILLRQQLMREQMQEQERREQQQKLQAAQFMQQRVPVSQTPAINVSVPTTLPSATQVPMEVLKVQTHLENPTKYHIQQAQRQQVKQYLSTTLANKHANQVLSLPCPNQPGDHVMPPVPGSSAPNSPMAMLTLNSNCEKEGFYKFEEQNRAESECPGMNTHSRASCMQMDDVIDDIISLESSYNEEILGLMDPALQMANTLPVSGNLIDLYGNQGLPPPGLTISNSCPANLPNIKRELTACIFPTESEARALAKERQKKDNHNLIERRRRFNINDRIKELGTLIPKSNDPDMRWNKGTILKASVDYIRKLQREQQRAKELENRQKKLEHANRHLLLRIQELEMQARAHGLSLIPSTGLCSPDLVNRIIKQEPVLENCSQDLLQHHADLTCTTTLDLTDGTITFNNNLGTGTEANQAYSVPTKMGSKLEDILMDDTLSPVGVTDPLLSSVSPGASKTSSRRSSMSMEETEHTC

HEK293 [3] = assay: NOD1 signaling inhibitors, primary screen, cell-based, luminescence, uHTS (AID 1578); format: functional; details: Homo sapiens
HEK293 [4] = assay: cells; format: functional, cell-based; details: Homo sapiens
HEK293 [5] = assay: cells; format: functional, cell-based; details: Homo sapiens; remark: listed apart in the source
HEK293 [6] = assay: NOD2 signaling inhibitors in MDP-stimulated cells, cell-based, uHTS, luminescence (AID 2001); format: functional; details: Homo sapiens
[7] = Shn3 3'UTR reporter inhibitors, dose response, cell-based, Clone20 osteoblasts, firefly luciferase, cherry-picked (AID 624132); format: functional;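 further: firefly luciferase luminescence from reporter carrying the Shn3 3'UTR in osteoblasts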
[8] = HepG2 cell cytotoxicity, dose response, cytotoxicity control for Shn3 inhibitor project, CellTiter-Glo, cherry-picked (AID 624134); format: functional, cell-based
[9] = control 3'UTR Renilla luciferase suppression, dose response, counter-screen for Shn3 inhibitor project, cell-based, Clone20-Shn3RL, cherry-picked (AID 624133); format: functional
Bcl-2-related protein A1 = target: T2, Bcl-2-related protein A1 (Mus musculus, UniProt Q07440); format: functional;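 further: confirmatory dose–response counterscreen on Bfl-1, used to check hits from a UBC13 polyubiquitin inhibitor campaign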
T2 sequence (Q07440 whole entry): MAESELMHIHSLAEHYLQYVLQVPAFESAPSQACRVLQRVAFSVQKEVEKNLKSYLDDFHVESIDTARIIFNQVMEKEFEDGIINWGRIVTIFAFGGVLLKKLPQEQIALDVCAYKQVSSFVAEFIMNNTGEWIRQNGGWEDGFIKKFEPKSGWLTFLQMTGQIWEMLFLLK

[10] = target: T3, Ubiquitin-conjugating enzyme E2 N (Homo sapiens, UniProt P61088); format: functional
T3 sequence (P61088 whole entry): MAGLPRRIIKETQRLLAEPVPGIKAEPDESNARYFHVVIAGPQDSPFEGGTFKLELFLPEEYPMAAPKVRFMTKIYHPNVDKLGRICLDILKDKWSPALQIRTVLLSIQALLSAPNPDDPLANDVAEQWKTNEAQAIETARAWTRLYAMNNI

[11] = target: T3, Ubiquitin-conjugating enzyme E2 N; format: functional; remark: listed apart in the source
Cytochrome P450 2D6 = Cytochrome P450 2D6 (Homo sapiens, UniProt P10635);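 further: CYP2D6 member of a cytochrome P450 panel assay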
Chain of Cytochrome P450 2D6 (P10635 whole entry): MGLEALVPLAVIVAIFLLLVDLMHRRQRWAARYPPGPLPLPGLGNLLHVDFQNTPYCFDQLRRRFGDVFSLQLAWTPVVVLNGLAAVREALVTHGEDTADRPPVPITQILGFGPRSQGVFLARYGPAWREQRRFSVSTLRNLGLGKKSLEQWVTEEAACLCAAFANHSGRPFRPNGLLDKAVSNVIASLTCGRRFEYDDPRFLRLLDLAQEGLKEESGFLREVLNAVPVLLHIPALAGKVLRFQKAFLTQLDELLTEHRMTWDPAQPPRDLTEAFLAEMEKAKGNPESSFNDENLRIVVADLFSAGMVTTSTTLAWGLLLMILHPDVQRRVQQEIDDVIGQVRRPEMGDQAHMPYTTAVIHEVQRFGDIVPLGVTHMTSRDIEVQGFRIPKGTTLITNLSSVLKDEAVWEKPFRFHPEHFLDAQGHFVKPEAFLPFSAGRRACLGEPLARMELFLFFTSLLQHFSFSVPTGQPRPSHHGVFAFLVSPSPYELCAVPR

[12] = target: Glucose-6-phosphate 1-dehydrogenase (Homo sapiens, UniProt P11413); assay: human G6PD enzyme inhibitors, dose response, selectivity assay for P. falciparum G6PD inhibitor project, biochemical, fluorescence (AID 504792); format: functional
Chain of Glucose-6-phosphate 1-dehydrogenase (P11413 whole entry): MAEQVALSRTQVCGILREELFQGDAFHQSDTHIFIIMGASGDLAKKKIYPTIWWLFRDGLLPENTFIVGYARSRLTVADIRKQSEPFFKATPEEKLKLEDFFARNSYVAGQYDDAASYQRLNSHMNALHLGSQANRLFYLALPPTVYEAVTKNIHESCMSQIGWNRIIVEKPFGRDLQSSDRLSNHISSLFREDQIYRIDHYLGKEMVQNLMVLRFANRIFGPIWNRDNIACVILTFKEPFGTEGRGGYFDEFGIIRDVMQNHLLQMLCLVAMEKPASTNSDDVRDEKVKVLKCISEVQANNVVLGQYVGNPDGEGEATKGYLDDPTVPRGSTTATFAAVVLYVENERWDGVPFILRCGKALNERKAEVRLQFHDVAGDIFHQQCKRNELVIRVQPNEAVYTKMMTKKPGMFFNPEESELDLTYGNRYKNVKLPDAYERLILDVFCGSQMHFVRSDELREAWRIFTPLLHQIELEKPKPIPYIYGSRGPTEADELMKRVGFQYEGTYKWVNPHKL

[13] = target: Cyclin-dependent kinase 5/CDK5 activator 1 (Homo sapiens, UniProt Q00535); assay: CDK5/p35 kinase inhibitors, dose response, biochemical, cherry-picked samples, set 2 (AID 504545)
Chain of Cyclin-dependent kinase 5/CDK5 activator 1 (Q00535 whole entry): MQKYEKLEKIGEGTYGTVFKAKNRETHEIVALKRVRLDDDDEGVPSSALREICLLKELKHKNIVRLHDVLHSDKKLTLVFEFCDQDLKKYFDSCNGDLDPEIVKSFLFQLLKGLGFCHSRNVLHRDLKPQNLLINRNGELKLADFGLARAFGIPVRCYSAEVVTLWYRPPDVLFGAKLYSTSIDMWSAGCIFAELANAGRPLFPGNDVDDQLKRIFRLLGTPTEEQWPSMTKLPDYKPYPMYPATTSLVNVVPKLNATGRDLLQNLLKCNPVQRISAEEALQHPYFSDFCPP
Chain of Cyclin-dependent kinase 5/CDK5 activator 1 (Q15078 whole entry, further chain): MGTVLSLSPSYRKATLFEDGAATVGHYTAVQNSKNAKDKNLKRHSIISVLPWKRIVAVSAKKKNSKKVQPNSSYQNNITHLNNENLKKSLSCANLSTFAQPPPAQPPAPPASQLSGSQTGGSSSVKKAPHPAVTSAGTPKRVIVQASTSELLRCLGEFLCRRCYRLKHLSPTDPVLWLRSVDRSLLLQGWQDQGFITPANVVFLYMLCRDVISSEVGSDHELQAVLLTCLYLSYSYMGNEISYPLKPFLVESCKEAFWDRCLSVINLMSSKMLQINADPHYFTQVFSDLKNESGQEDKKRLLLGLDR

Protein RecA = target: T4, Protein RecA (Mycobacterium tuberculosis, UniProt P9WHJ3); assay: Fluorescence Cell-Free Homogeneous Dose Retest to Identify Inhibitors of RecA-Intein Splicing Activity. [Related pubchem assays (depositor defined):AID2097, AID2223, AID489010, AID492950]; format: functional
T4 sequence (P9WHJ3 whole entry): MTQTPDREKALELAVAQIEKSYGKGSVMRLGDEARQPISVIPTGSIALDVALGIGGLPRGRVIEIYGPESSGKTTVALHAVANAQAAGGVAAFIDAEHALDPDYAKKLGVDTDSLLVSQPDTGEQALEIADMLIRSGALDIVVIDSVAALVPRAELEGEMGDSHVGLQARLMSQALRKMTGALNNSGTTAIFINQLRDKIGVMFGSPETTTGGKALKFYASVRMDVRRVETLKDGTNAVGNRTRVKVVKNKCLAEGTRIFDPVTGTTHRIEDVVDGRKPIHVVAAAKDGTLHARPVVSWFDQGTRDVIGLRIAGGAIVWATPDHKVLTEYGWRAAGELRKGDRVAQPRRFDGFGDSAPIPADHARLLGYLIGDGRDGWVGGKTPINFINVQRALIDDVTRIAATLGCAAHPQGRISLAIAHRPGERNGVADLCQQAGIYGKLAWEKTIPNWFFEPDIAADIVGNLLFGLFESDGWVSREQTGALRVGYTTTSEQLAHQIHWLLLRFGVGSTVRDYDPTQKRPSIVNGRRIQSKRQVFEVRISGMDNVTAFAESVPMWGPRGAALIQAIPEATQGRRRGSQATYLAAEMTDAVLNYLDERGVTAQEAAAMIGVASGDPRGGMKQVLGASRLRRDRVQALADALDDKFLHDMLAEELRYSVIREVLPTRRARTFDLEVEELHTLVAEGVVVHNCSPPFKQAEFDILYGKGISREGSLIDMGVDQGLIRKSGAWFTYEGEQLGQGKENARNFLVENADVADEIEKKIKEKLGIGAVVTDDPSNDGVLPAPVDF

[14] = microbe, parasite or virus in culture; format: functional; details: Mycobacterium tuberculosis
[15] = THP-1 cell cytotoxicity, dose response, cytotoxicity control for non-replicating M. tuberculosis project (AID 489025); format: functional
[16] = HepG2 cell cytotoxicity, dose response, cytotoxicity control for non-replicating M. tuberculosis project (AID 489018); format: functional; details: Mycobacterium tuberculosis
[17] = Vero E6 cell cytotoxicity, dose response, cytotoxicity control for non-replicating M. tuberculosis project, secondary assay (AID 492998); format: functional, VeroE6; details: Vero C1008
cells [18] = format: functional
[19] = inhibitors of firefly luciferase expression or activity, dose response, H4 neuroglioma cells, luminescence (AID 1990); format: functional, cell-based
[20] = luciferase reporter signal reduction – luminescence, H4-C neuroglioblastoma cells, dose response (AID 2458); format: functional, cell-based;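 further: H4 neuroglioblastoma cells stably carrying a luciferase reporter gene fusion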
BJ [21] = assay: cytotoxicity toward BJ-TERT fibroblasts, dose response, cell-based, RAS-independent, luminescence (AID 1933); format: functional; details: Homo sapiens
cells [22] = format: functional, cell-based
[23] = inhibitors of SNCA 5'UTR-driven reporter translation, confirmation, H4 neuroglioma cells, luminescence (AID 1988); format: functional, cell-based
BJ [24] = assay: cells; format: functional, cell-based; details: Homo sapiens
BJ [25] = assay: cytotoxicity toward BJ-TERT-LT-ST fibroblasts, dose response, cell-based, RAS-independent, luminescence (AID 1935); format: functional; details: Homo sapiens;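 further: BJ fibroblasts immortalized with TERT plus LT and ST oncogenes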
[26] = cytotoxicity toward DRD oncogenic fibroblasts, dose response, cell-based, non-viral oncogenic, luminescence (AID 1934); format: functional; details: Homo sapiens
[27] = inhibitors of SNCA 5'UTR-driven translation, confirmation, luminescence, H4 neuroglioblastoma cells, dose confirmation (AID 2454); format: functional, cell-based;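 further: H4 neuroglioblastoma cells carrying an alpha-synuclein 5'UTR luciferase reporter; potency for inhibition of the luciferase signal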
[28] = cytotoxicity in HEK-293T cells, dose response, cytotoxicity control for TCR NF-kB inhibitor project, luminescence, T-cell screen hits (AID 489026); format: functional, cell-based;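 further: cells exposed to compound about 14 hours before the viability readout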
BJ [29] = assay: cytotoxicity toward Ras-transformed BJeLR fibroblasts, dose response, cell-based, alamar blue fluorescence, cherrypicked samples (AID 2631); format: functional; details: Homo sapiens;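 further: confirmatory dose-response assay in RAS-dependent BJ fibroblasts engineered with TERT, LT and ST, with cytotoxicity read by fluorescence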
[30] = Luminescence Cell-Based Dose Response HTS to Identify Inhibitors of 5'UTR Stem-Loop Driven Prion Protein mRNA Translation in H4 Neuroglioblastoma Cells. [Related pubchem assays: 1827 (Project Summary), 1813 (Primary HTS)]; format: functional
[31] = target: FAD-linked sulfhydryl oxidase ALR (Homo sapiens, UniProt P55789); assay: inhibitors of human ALR sulfhydryl oxidase, dose response, biochemical, H2O2 detection, luminescence, cherry-pick (AID 493248)
Chain of FAD-linked sulfhydryl oxidase ALR (P55789 whole entry): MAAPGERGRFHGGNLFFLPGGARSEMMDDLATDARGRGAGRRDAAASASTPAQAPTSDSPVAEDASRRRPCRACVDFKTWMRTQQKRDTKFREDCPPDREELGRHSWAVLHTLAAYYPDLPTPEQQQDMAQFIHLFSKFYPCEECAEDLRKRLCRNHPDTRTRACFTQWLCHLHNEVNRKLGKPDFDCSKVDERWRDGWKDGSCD

Chain of Voltage-dependent T-type calcium channel subunit alpha-1H (O95180 whole entry): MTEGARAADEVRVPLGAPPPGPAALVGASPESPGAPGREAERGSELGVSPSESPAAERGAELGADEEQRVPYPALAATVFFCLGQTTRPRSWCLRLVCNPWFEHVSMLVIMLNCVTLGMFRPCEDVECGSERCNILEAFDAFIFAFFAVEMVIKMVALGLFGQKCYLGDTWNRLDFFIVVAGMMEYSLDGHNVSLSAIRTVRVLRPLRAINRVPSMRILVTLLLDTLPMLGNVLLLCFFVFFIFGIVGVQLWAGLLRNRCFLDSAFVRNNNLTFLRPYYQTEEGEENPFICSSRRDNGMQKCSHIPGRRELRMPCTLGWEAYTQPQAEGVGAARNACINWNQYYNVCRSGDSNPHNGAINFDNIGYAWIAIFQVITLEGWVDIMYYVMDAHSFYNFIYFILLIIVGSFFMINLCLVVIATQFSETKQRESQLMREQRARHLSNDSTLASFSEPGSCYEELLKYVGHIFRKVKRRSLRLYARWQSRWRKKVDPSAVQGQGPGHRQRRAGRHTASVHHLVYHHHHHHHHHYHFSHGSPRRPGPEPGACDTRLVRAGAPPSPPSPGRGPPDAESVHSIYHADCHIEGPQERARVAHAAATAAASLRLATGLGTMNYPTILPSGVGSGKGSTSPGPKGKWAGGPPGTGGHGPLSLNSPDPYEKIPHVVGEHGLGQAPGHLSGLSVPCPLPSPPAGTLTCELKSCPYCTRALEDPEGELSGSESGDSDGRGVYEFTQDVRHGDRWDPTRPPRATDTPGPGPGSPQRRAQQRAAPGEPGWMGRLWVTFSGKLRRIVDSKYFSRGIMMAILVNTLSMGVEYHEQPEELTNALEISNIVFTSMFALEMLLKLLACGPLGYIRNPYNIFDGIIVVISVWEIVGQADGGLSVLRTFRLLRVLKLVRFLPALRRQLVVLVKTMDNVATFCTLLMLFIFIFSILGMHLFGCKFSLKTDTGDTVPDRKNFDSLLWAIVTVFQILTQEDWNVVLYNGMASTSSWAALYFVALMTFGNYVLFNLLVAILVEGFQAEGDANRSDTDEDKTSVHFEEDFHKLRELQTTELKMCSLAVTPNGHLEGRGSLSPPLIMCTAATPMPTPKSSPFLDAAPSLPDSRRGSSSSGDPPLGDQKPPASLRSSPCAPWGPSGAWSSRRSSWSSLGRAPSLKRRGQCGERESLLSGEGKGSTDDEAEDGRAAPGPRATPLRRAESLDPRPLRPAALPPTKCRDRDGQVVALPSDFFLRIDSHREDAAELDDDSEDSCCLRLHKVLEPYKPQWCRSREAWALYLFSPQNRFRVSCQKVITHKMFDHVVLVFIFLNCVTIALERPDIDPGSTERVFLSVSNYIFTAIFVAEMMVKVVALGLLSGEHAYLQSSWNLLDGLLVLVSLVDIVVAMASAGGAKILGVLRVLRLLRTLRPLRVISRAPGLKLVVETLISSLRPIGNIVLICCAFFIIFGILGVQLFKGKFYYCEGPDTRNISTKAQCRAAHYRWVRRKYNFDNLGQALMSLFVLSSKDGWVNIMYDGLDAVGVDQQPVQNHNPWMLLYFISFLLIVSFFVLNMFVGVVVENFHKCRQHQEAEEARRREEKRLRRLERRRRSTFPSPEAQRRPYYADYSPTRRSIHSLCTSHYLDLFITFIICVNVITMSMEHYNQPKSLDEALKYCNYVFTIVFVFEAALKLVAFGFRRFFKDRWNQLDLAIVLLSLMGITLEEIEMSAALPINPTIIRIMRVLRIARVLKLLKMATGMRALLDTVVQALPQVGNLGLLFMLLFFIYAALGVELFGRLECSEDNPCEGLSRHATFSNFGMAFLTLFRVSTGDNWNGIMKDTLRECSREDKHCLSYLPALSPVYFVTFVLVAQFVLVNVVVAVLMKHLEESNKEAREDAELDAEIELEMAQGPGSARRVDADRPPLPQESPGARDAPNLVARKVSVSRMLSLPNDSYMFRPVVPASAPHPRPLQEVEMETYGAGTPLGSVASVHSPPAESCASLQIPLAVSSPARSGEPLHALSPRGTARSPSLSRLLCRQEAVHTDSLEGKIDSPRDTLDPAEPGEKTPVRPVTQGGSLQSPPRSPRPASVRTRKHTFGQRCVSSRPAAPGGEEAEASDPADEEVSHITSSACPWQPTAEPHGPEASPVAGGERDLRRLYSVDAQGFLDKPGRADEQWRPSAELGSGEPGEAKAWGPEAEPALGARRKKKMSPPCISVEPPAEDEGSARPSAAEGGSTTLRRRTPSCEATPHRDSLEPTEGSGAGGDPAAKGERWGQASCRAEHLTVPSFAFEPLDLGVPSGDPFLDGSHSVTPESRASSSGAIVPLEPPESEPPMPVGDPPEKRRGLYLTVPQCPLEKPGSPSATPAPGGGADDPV

COc1ccc(OC)c(CCNC(=O)CS(=O)(=O)Cc2nc(-c3ccc(C)cc3)oc2C)c1
EC50 [1]: 3.8 µM (active)

N#C/C(=C(/O)CCl)c1nc2ccccc2[nH]1
AC50 [2]: 4.6 µM (active)

Cn1cc(S(=O)(=O)N2CCc3ccccc32)cc1C(=O)NC(C)(C)C
EC50 (HEK293 [3]): 3.38 µM (active)
IC50 (HEK293 [4]): 10.6 µM (active)
IC50 (HEK293 [5]): > 20 µM (inactive)
IC50 (HEK293 [6]): 12.3 µM (inactive)
AC50 [7]: 1.25 µM (active)
AC50 [8]: 3.56 µM (active)
AC50 [9]: 1.37 µM (active)

Cn1cccc1Cc1nnc(SCC(=O)Nc2ccc(Cl)cc2)n1-c1ccc(F)cc1
EC50 [1]: 1.32 µM (active)

O=C(NCCN1CCN(c2ccccc2)CC1)c1ccc2c(c1)[nH]c(=S)n1c3ccccc3nc21
IC50 (Bcl-2-related protein A1): > 20 µM (inactive)
IC50 [10]: 0.829 µM (active)
IC50 [11]: > 20 µM (inactive)

CCn1nc(C)c(NC(=O)/C=C/c2cnn(C)c2C)c1C
AC50 (Cytochrome P450 2D6): inconclusive

CCCC(=O)N1CCN(c2ccc([N+](=O)[O-])c(NC(C)c3ccccc3)c2)CC1 (stereo unspecified)
EC50 [1]: 5.51 µM (active)

COc1cccc(-c2nc(CS(=O)(=O)CC(=O)N3CCc4ccccc4C3)c(C)o2)c1
EC50 [1]: 10.8 µM (active)

NS(=O)(=O)c1cc2c(cc1Cl)N=C(CCC(=O)O)N=S2(=O)O
AC50 (Cytochrome P450 2D6): inconclusive

Cc1ccsc1/C=N\NC(=O)CC(=O)NCc1ccccc1
IC50 [12]: > 80 µM (inactive)

NNC(=O)c1ccc(CN2C(=O)c3cccc4cccc2c34)cc1
IC50 (Bcl-2-related protein A1): > 20 µM (inactive)
IC50 [10]: 8.94 µM (active)
IC50 [11]: 3.55 µM (active)

Cc1n[nH]c(O)c1C(c1ccccc1[N+](=O)[O-])C(C#N)C#N (stereo unspecified)
AC50 [13]: 61.1 µM (active)
EC50 (Protein RecA): 3.93 µM (active)

CC(C)(C)OC(=O)NNc1c2ccccc2nc2ccccc12
CC50 [14]: > 40 µM (active)
CC50 [15]: > 40 µM (active)
CC50 [16]: 15.1 µM (active)
CC50 [17]: > 20 µM (active)
IC50 (cells [18]): 22.2 µM (active)

COc1ccc(/C=N/NC(=O)Cc2csc(Nc3cccc(C(F)(F)F)c3)n2)c(OC)c1
IC50 (Bcl-2-related protein A1): > 20 µM (inactive)
IC50 [10]: 14 µM (active)
IC50 [11]: 10.1 µM (active)

CCOc1ccccc1C(=O)N1CCN(c2cccc(Cl)c2)CC1
EC50 [19]: < 0.1 µM (active)
EC50 [20]: 0.229 µM (active)
EC50 (BJ [21]): 2.66 µM (inconclusive)
EC50 (cells [22]): 0.331 µM (active)
EC50 [23]: < 0.1 µM (active)
EC50 (BJ [24]): 2.85 µM (inconclusive)
EC50 (BJ [25]): 1.44 µM (active)
EC50 [26]: 2.65 µM (active)
EC50 [27]: 0.31 µM (active)
IC50 [28]: > 80 µM (inactive)
EC50 (BJ [29]): < 0.104 µM (active)

C/C=C(\C)C(=O)OC1C(C)=C2C(C1OC(=O)CCCCC)C(C)(OC(C)=O)CC(OC(=O)CCC)C1(O)C2OC(=O)C1(C)O (stereo unspecified)
EC50 [19]: < 0.1 µM (active)
EC50 [20]: 0.051 µM (active)
EC50 (cells [22]): 0.228 µM (active)
EC50 [30]: < 0.1 µM (active)
EC50 [23]: < 0.1 µM (active)
EC50 [27]: 0.047 µM (active)

Cc1cc(-c2nsc(=O)o2)c(S(C)(=O)=O)s1
AC50 [13]: 29.3 µM (active)
AC50 [31]: 3.86 µM (active)

OCCN(CO)CO
AC50 (Cytochrome P450 2D6): inconclusive
